ChEMBL document CHEMBL5390263, “Direct evaluation of polarity of the ligand binding pocket in retinoid X receptor using a fluorescent solvatochromic agonist” (Bioorg Med Chem Lett, 2023)
Calls of active or inactive are those of the source. No cut-off for these calls is given here.

Assays:
[1] = target: T1, Retinoic acid receptor RXR-alpha (Homo sapiens) (UniProt P19793); assay: Binding affinity to RXRalpha-LBD (unknown origin) assessed as fluorescence intensity by measuring maximum excitation wavelength from 382 to 440 nm at 5 to 20 uM in the presence of bexarotene by FRET assay; details: dose 5-20 µM
T1 sequence (whole entry): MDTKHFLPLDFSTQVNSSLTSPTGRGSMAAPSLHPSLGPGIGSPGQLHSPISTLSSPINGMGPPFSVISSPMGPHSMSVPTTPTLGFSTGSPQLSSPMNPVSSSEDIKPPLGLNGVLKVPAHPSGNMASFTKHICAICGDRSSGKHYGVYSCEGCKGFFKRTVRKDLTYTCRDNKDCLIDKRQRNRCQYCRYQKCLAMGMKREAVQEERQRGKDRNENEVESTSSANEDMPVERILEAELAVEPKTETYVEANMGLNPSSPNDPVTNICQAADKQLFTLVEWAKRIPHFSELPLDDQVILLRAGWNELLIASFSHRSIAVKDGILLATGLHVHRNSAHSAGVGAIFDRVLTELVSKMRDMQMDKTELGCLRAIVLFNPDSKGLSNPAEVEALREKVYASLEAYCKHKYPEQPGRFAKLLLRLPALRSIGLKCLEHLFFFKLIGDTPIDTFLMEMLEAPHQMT

[2] = target: T1, Retinoic acid receptor RXR-alpha (Homo sapiens); assay: Binding affinity to RXR alpha-LBD (unknown origin) assessed as increase in fluorescence intensity up to 16 uM by FRET assay; details: filed as agonist
[3] = target: T1, Retinoic acid receptor RXR-alpha (Homo sapiens); assay: Binding affinity to RXRalpha-LBD (unknown origin) assessed as increase in fluorescence intensity by measuring maximum excitation of 440 nm wavelength at 16 uM by FRET assay; details: filed as agonist
[4] = target: T1, Retinoic acid receptor RXR-alpha (Homo sapiens); assay: Binding affinity to RXRalpha-LBD (unknown origin) assessed as increase in fluorescence intensity by measuring maximum excitation wavelength from 382 to 440 nm by FRET assay; details: filed as agonist, dose <= 16.0 µM
[5] = target: T2, Retinoic acid receptor RXR-alpha (Homo sapiens, UniProt P19793); assay: Binding affinity to RXRalpha-LBD (unknown origin) assessed as dissociation constant by FRET assay
T2 sequence (P19793 whole entry): T1 sequence (whole entry)

[6] = target: T2, Retinoic acid receptor RXR-alpha; assay: Binding affinity to RXRalpha-LBP (unknown origin) assessed as dissociation constant by FRET assay

With `CCN(c1ccc2c(C(F)(F)F)cc(=O)n(CC(C)C)c2c1)c1ccc(C(=O)O)cn1` the Activity [1] was “inactive”, the Activity [2] was “Active” and the Activity [3] was “Active”. For the same compound, the Activity [4] was “Dose-Dependent Effect”, the Kd [5] was 6.3 µM and the Kd [6] was 10.9 µM.
